Data as given in patent US20070081951A1, “Prevention of dental plaque and dental calculus in animals” (priority 2005, published 2007).

Key:
[1] = system: Streptococcus mutans (TH16); test: Zones of inhibition of growth on TSA agar plates, Streptococcus mutans (TH16); type: cell-based; settings: for Zones of Inhibition of Growth, TH16: 20 ul specimen on TSA agar lawn, 37° C., 5% CO2, read at 24 and 48 h, CPC 0.05%, CHX 0.1%, acids 1% (wt. %)
Procedure: (§1) This study was conducted to determine whether anti-calculus agents inhibit the antimicrobial activity of cetyl pyridium chloride […] and chlorhexidine (CHX).
(§2) Experimental Design: TSA agar plates were individually swabbed with fresh 24 h broth cultures of Streptococcus mutans (TH16), Streptococcus parasanguis (FW213) and Actinomyces viscosus (AV) to provide a confluent lawn of bacterial growth. Five minutes after swabbing the plates (to allow the inoculum to absorb into the agar), 20 ul of each test specimen (see below) was placed onto designated places on the plates and allowed to absorb into the agar. The plates were incubated agar-side up at 37° C. in 5% CO2 for 48 h. Plates were examined at 24 and 48 h for zones of inhibition of growth for each bacterial species. The diameter of each zone was measured in mm. The zones of inhibition of each mixture (anti-calculus and antimicrobial agents) were compared to the zones of each agent separately. If the zones of the mixtures were the same size (or larger) than the inhibition zones from the antimicrobial agent alone then there was no inhibition of antimicrobial activity by the anti-calculus agent.
(§3) Test Specimens: There were 12 different samples/test specimens used in this experiment. Test groups included (concentrations are wt. %): cetyl pyridium chloride ([…]; commercially available from ICN Biomedicals, Inc., Aurora, Ohio) at a concentration of 0.05%; CPC at 0.05%+1.0% malic acid; CPC at 0.05%+1% fumaric acid; CPC at 0.05%+1% citric acid; chlorhexidine (CHX; commercially available ICN Biomedicals, Inc., Aurora, Ohio) at 0.1% alone; CHX at 0.1%+1% malic acid; CHX at 0.1%+1% fumaric acid; CHX at 0.1%+1% citric acid; 1% malic acid; 1% fumaric acid; 1% citric acid.
(§4) Results: See Table 1 (below). This study was designed to determine whether or not the polycarboxylic acids (anti-calculus agents) altered the activity of the anti-microbial agents. Decreases in the width of the zone of inhibition when the polycarboxylic acid is combined with the antimicrobial agent, as compared to the width of the zone of inhibition for the antimicrobial agent alone, is an indication that the polycarboxylic acid reduced the activity of the anti-microbial agent. Differences in the width of the zone of inhibition of ±3 mm are not considered to be significant.

[2] = system: Streptococcus parasanguis (FW213); test: Zones of inhibition of growth on TSA agar plates, Streptococcus parasanguis (FW213); type: cell-based; settings: for Zones of Inhibition of Growth, FW213: 20 ul specimen on TSA agar lawn, 37° C., 5% CO2, read at 24 and 48 h, CPC 0.05%, CHX 0.1%, acids 1% (wt. %)
Procedure: as §1, §2, §3, §4

[3] = system: Actinomyces viscosus (AV); test: Zones of inhibition of growth on TSA agar plates, Actinomyces viscosus (AV); type: cell-based; settings: for Zones of Inhibition of Growth, AV: 20 ul specimen on TSA agar lawn, 37° C., 5% CO2, read at 24 and 48 h, CPC 0.05%, CHX 0.1%, acids 1% (wt. %)
Procedure: as §1, §2, §3, §4

[4] = system: dental plaque in cats; test: Example 3: antimicrobial rinses in cats, 4-week dental plaque formation; type: in vivo; settings: 4-week test periods, clinical plaque grading
Procedure: The presence of dental plaque was assessed clinically by disclosing the plaque with an aqueous solution containing 1.5% D&C Red #28, removing the excess disclosant by spraying with tap water, and then determining the amount of plaque present on the occlusal and gingival halves of the buccal surface of each tooth using the following numerical scale: 0=no observable plaque; 1=scattered plaque covering <24% of the tooth surface; 2=plaque covering between 25 and 49% of the tooth surface; 3=plaque covering between 50 and 74% of the tooth surface; and 4=plaque covering 75% or more of the tooth surface. The plaque intensity or thickness was assessed for each area using the following subjective numerical scale: 1=light or thin layer of plaque; 2=moderate thickness of about 1 mm; and 3=heavy or thick layer of plaque in excess of 1 mm in thickness. The results of the assessments were summarized for each animal by multiplying the plaque coverage score by the intensity factor for each occlusal and gingival segment of each tooth, summing the scores for the occlusal and gingival segments to obtain an individual tooth score, and summing the individual tooth scores and dividing by the number of teeth graded.
The treatments were applied as rinses with 4-week test periods using the same procedures as described for Example 2. The amount of plaque present at the conclusion of the test period was graded clinically using the numerical scale described previously.

[5] = zone of mixture vs antimicrobial agent alone, differences of ±3 mm not significant

SMILES	Zones of Inhibition of Growth, TH16 [1]	Zones of Inhibition of Growth, FW213 [2] [mm]	Zones of Inhibition of Growth, AV [3] [mm]	Change of antimicrobial activity on combining with the polycarboxylic acids, S. mutans [1, 5]	Change of antimicrobial activity on combining with the polycarboxylic acids, S. parasanguis [2, 5]	Change of antimicrobial activity on combining with the polycarboxylic acids, A. viscosus [3, 5]	Reduction in the formation of dental plaque [4]
O=C(O)CC(O)(CC(=O)O)C(=O)O [C (citric acid), citric acid]	Weak* (Weak = very slight activity; <1 mm)	0	0	–	–	–	–
[H]/N=C(\N/C(=N/[H])NCCCCCCNC(=N)NC(=N)Nc1ccc(Cl)cc1)Nc1ccc(Cl)cc1 [CHX alone, chlorhexidine gluconate]	6 mm	13	20	not altered	not altered	decreased by the presence of fumaric acid	–
O=C(O)/C=C/C(=O)O [F (fumaric acid), fumaric acid]	Weak* (Weak = very slight activity; <1 mm)	0	0	–	–	–	–
O=C(O)CC(O)C(=O)O (stereo not drawn) [M (malic acid), malic acid]	Weak* (Weak = very slight activity; <1 mm)	0	0	–	–	–	–
Oc1cc(Cl)ccc1Oc1ccc(Cl)cc1Cl [Triclosan]	–	–	–	–	–	–	14.8%
CCCCCCCC(=O)O [caprylic acid]	–	–	–	–	–	–	10.2%
[F][Sn][F] [stannous fluoride]	–	–	–	–	–	–	no reduction
